Test results taken from ChEMBL document CHEMBL4706583, “2-Anilinoquinoline based arylamides as broad spectrum anticancer agents with B-RAF/C-RAF kinase inhibitory effects: Design, synthesis, in vitro cell-based and oncogenic kinase assessments” (Eur J Med Chem, 2020).
pIC50: −log10 of the molar value.

Columns and labels:
HOP-62 = assay: Growth inhibition of human HOP-62 cells measured after 48 hrs by SRB assay; format: functional
HCC 2998 = assay: Growth inhibition of human HCC 2998 cells measured after 48 hrs by SRB assay; format: functional
HCT-116 [1] = assay: Induction of apoptosis in human HCT-116 cells assessed as necrotic cells at 5 uM measured after 48 hrs by Annexin-V Alexa Fluor488/propidium iodide staining based flow cytometry (reference value: 7.7%); format: functional
SF-295 = assay: Growth inhibition of human SF-295 cells measured after 48 hrs by SRB assay; format: functional
SK-MEL-5 = assay: Growth inhibition of human SK-MEL-5 cells measured after 48 hrs by SRB assay; format: functional
NCI-H460 = assay: Growth inhibition of human NCI-H460 cells measured after 48 hrs by SRB assay; format: functional
UACC-62 = assay: Growth inhibition of human UACC-62 cells measured after 48 hrs by SRB assay; format: functional
NCI-H522 = assay: Growth inhibition of human NCI-H522 cells measured after 48 hrs by SRB assay; format: functional
HCT-116 [2] = assay: Induction of apoptosis in human HCT-116 cells assessed as late apoptotic cells at 1.25 uM measured after 24 hrs by Annexin-V Alexa Fluor488/propidium iodide staining based flow cytometry (reference value: 1%); format: functional
HCT-116 [3] = assay: Induction of apoptosis in human HCT-116 cells assessed as early apoptotic cells at 5 uM measured after 48 hrs by Annexin-V Alexa Fluor488/propidium iodide staining based flow cytometry (reference value: 7.7%); format: functional
HCT-116 [4] = assay: Induction of apoptosis in human HCT-116 cells assessed as necrotic cells at 1.25 uM measured after 24 hrs by Annexin-V Alexa Fluor488/propidium iodide staining based flow cytometry (reference value: 4.6%); format: functional
A549 = assay: Growth inhibition of human A549 cells measured after 48 hrs by SRB assay; format: functional
NCI/ADR-RES = assay: Growth inhibition of human NCI/ADR-RES cells measured after 48 hrs by SRB assay; format: functional
HCT-15 = assay: Growth inhibition of human HCT-15 cells measured after 48 hrs by SRB assay; format: functional
ACHN = assay: Growth inhibition of human ACHN cells measured after 48 hrs by SRB assay; format: functional
K562 = assay: Growth inhibition of human K562 cells measured after 48 hrs by SRB assay; format: functional
HCT-116 [5] = assay: Growth inhibition of human HCT-116 cells measured after 48 hrs by SRB assay; format: functional
RPMI-8226 = assay: Growth inhibition of human RPMI-8226 cells measured after 48 hrs by SRB assay; format: functional
HCT-116 [6] = assay: Induction of apoptosis in human HCT-116 cells assessed as early apoptotic cells at 2.5 uM measured after 48 hrs by Annexin-V Alexa Fluor488/propidium iodide staining based flow cytometry (reference value: 7.7%); format: functional
[7] = molecular target: High affinity nerve growth factor receptor (Homo sapiens, UniProt P04629); assay: Inhibition of human TRKA using poly[Glu:Tyr] (4:1) as substrate in presence of [gamma-33P]ATP by scintillation counting method
[8] = molecular target: Serine/threonine-protein kinase B-raf (Homo sapiens, UniProt P15056, V600E); assay: Inhibition of human BRAF V600E mutant using MEK1 (K97R) as substrate in presence of [gamma-33P]ATP by scintillation counting method
OVCAR-4 = assay: Growth inhibition of human OVCAR-4 cells measured after 48 hrs by SRB assay; format: functional
HCT-116 [9] = assay: Induction of apoptosis in human HCT-116 cells assessed as necrotic cells at 2.5 uM measured after 48 hrs by Annexin-V Alexa Fluor488/propidium iodide staining based flow cytometry (reference value: 7.7%); format: functional
Malme-3M = assay: Growth inhibition of human Malme-3M cells measured after 48 hrs by SRB assay; format: functional
SF-268 = assay: Growth inhibition of human SF-268 cells measured after 48 hrs by SRB assay; format: functional
HCT-116 [10] = assay: Induction of apoptosis in human HCT-116 cells assessed as early apoptotic cells at 1.25 uM measured after 24 hrs by Annexin-V Alexa Fluor488/propidium iodide staining based flow cytometry (reference value: 6.3%); format: functional
MDA-MB-435 = assay: Growth inhibition of human MDA-MB-435 cells measured after 48 hrs by SRB assay; format: functional
HCT-116 [11] = assay: Induction of apoptosis in human HCT-116 cells assessed as viable cells at 1.25 uM measured after 48 hrs by Annexin-V Alexa Fluor488/propidium iodide staining based flow cytometry (reference value: 82.3%); format: functional; conditions: read-out: Activity
HCT-116 [12] = assay: Induction of apoptosis in human HCT-116 cells assessed as viable cells at 5 uM measured after 24 hrs by Annexin-V Alexa Fluor488/propidium iodide staining based flow cytometry (reference value: 88.1%); format: functional; conditions: read-out: Activity
IGROV-1 = assay: Growth inhibition of human IGROV-1 cells measured after 48 hrs by SRB assay; format: functional
HCT-116 [13] = assay: Induction of apoptosis in human HCT-116 cells assessed as late apoptotic cells at 5 uM measured after 48 hrs by Annexin-V Alexa Fluor488/propidium iodide staining based flow cytometry (reference value: 2.2%); format: functional
CCRF-CEM = assay: Growth inhibition of human CCRF-CEM cells measured after 48 hrs by SRB assay; format: functional
NCI-H322M = assay: Growth inhibition of human NCI-H322M cells measured after 48 hrs by SRB assay; format: functional
DU-145 = assay: Growth inhibition of human DU-145 cells measured after 48 hrs by SRB assay; format: functional
NCI-H226 = assay: Growth inhibition of human NCI-H226 cells measured after 48 hrs by SRB assay; format: functional
MCF7 = assay: Growth inhibition of human MCF7 cells measured after 48 hrs by SRB assay; format: functional
[14] = molecular target: RAF proto-oncogene serine/threonine-protein kinase (Homo sapiens, UniProt P04049); assay: Inhibition of human CRAF using MEK1 (K97R) as substrate in presence of [gamma-33P]ATP by scintillation counting method
PC-3 = assay: Growth inhibition of human PC-3 cells measured after 48 hrs by SRB assay; format: functional
[15] = Cytotoxicity against human L132 cells assessed as cell viability at 3 uM measured after 48 hrs by EZ-Cytox assay relative to control; format: cell-based; conditions: read-out: Activity
OVCAR-8 = assay: Growth inhibition of human OVCAR-8 cells measured after 48 hrs by SRB assay; format: functional
HCT-116 [16] = assay: Induction of apoptosis in human HCT-116 cells assessed as late apoptotic cells at 2.5 uM measured after 24 hrs by Annexin-V Alexa Fluor488/propidium iodide staining based flow cytometry (reference value: 1%); format: functional

Chain of RAF proto-oncogene serine/threonine-protein kinase (P04049 whole entry): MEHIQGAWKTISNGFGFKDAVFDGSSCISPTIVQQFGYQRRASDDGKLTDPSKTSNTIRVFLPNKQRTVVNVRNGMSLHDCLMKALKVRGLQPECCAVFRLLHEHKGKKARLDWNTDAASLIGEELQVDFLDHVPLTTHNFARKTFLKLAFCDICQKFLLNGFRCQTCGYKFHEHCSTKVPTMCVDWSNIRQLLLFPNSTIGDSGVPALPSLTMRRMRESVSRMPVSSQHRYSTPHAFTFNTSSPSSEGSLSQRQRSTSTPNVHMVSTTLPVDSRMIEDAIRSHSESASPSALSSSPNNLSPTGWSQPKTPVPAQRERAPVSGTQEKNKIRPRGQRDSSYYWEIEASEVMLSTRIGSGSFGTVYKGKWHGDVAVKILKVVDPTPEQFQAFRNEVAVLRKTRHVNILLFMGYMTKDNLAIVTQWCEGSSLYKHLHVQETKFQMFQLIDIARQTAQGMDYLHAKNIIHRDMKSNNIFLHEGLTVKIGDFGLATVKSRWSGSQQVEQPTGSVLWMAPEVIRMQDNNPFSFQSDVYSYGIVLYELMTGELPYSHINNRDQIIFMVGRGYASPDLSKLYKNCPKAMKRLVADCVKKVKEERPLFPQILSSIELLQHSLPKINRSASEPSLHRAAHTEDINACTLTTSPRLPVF
Chain of High affinity nerve growth factor receptor (P04629 whole entry): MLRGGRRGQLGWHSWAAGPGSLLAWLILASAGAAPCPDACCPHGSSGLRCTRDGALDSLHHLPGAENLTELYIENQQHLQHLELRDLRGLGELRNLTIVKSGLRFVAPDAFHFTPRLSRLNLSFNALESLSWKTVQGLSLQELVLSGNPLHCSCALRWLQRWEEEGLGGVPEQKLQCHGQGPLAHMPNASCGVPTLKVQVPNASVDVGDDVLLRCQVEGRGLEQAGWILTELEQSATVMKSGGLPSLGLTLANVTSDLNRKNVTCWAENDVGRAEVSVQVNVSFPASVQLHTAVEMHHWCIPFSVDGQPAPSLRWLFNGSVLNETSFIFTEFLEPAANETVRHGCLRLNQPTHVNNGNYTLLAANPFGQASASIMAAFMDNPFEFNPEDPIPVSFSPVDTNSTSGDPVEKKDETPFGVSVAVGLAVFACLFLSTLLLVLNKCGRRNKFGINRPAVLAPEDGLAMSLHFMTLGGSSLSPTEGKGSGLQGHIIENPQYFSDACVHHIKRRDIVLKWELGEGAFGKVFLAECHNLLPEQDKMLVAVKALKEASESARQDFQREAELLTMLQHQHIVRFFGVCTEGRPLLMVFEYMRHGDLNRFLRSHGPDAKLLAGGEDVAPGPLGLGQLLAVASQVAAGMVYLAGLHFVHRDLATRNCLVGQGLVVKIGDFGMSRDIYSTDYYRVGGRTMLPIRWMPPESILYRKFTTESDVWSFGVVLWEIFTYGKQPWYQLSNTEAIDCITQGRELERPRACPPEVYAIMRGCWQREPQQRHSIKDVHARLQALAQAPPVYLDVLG
Chain of Serine/threonine-protein kinase B-raf (P15056 2-766 V600E limits assumed): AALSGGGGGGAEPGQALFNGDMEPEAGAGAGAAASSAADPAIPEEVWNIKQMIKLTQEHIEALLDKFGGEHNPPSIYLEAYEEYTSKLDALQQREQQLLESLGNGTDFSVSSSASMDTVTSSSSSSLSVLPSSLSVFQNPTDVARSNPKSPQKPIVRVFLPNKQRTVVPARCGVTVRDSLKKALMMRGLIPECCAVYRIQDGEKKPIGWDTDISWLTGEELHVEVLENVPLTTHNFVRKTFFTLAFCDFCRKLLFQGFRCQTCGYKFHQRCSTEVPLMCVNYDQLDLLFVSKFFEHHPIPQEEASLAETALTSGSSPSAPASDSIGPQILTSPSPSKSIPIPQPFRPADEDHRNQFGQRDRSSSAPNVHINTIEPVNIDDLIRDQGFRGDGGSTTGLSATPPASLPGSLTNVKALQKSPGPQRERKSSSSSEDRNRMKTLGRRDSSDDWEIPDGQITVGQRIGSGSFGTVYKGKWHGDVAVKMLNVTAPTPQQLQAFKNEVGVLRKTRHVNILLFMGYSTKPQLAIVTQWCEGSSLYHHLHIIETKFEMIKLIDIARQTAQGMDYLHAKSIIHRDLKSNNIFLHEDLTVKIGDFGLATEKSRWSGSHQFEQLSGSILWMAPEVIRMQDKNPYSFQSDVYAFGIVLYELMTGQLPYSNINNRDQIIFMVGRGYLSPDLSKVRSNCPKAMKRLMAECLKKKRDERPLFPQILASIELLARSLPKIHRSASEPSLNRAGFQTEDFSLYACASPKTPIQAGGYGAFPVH

In the case of `CCN1CCN(c2cc(C(=O)Nc3cccc(Nc4ccc5c(OC)cccc5n4)c3)cc(C(F)(F)F)c2)CC1`, the GI50 (HOP-62) was 1.02 µM, the GI50 (HCC 2998) was 0.72 µM and the Activity (HCT-116 [1]) was 0.5%. The GI50 (SF-295) was 0.803 µM, the LC50 (SF-295) was 11.4 µM and the TGI (SF-295) was 2.25 µM. The GI50 (SK-MEL-5) was 1.55 µM, the GI50 (NCI-H460) was 1.34 µM and the GI50 (UACC-62) was 1.5 µM. For the same molecule, the GI50 (NCI-H522) was 1.01 µM, the Activity (HCT-116 [2]) was 0.6% and the Activity (HCT-116 [3]) was 26.8%. It also gave an Activity (HCT-116 [4]) of 0.4%, a GI50 (A549) of 1.05 µM and a GI50 (NCI/ADR-RES) of 1.29 µM. For the same molecule, the GI50 (HCT-15) was 0.798 µM, the GI50 (ACHN) was 1.21 µM and the GI50 (K562) was 0.91 µM. For the same molecule, the GI50 (HCT-116 [5]) was 0.872 µM, the LC50 (HCT-116 [5]) was 12.4 µM and the TGI (HCT-116 [5]) was 3.54 µM. The GI50 (RPMI-8226) was 1.2 µM, the LC50 (concentration killing 50% of cells) (RPMI-8226) was 15.3 µM and the TGI (RPMI-8226) was 5.32 µM. For the same molecule, the Activity (HCT-116 [6]) was 19%, the pIC50 [7] was 5.78 and the pIC50 [8] was 6.05. The GI50 (OVCAR-4) was 1.57 µM, the Activity (HCT-116 [9]) was 1.2% and the GI50 (Malme-3M) was 0.611 µM. For the same molecule, the LC50 (concentration killing 50% of cells) (Malme-3M) was 2.88 µM, the TGI (Malme-3M) was 1.33 µM and the GI50 (SF-268) was 1.76 µM. For the same molecule, the Activity (HCT-116 [10]) was 12.5%, the GI50 (MDA-MB-435) was 1.16 µM and the viability at 1.25 µM (HCT-116 [11]) was 82.7%. For the same molecule, the viability at 5 µM (HCT-116 [12]) was 79.2%, the GI50 (IGROV-1) was 0.924 µM and the LC50 (IGROV-1) was 20 µM. For the same molecule, the TGI (IGROV-1) was 5.23 µM, the Activity (HCT-116 [13]) was 0.6% and the GI50 (CCRF-CEM) was 0.758 µM. The LC50 (CCRF-CEM) was 8.04 µM, the TGI (CCRF-CEM) was 2.06 µM and the GI50 (NCI-H322M) was 1.33 µM. The GI50 (DU-145) was 1.88 µM, the GI50 (NCI-H226) was 2.85 µM and the GI50 (MCF7) was 0.679 µM. For the same molecule, the LC50 (MCF7) was 17.6 µM, the TGI (MCF7) was 2.28 µM and the pIC50 [14] was 6.64. The GI50 (PC-3) was 0.805 µM, the viability at 48 h, 3 µM [15] was 82.8% and the GI50 (OVCAR-8) was 1.97 µM. For the same molecule, the Activity (HCT-116 [16]) was 0.9%.
Molecule `COc1cccc2nc(Nc3cccc(NC(=O)c4ccc(N5CCN(C)CC5)c(C(F)(F)F)c4)c3)ccc12` has a GI50 (HOP-62) of 0.856 µM, a GI50 (HCC 2998) of 0.95 µM and an Activity (HCT-116 [1]) of 3.5%. For the same molecule, the GI50 (SF-295) was 0.967 µM, the LC50 (SF-295) was 3.82 µM and the TGI (SF-295) was 1.92 µM. The GI50 (SK-MEL-5) was 1.52 µM, the GI50 (NCI-H460) was 0.964 µM and the GI50 (UACC-62) was 1.06 µM. For the same molecule, the GI50 (NCI-H522) was 1.04 µM, the Activity (HCT-116 [2]) was 1.7% and the Activity (HCT-116 [3]) was 29.6%. The Activity (HCT-116 [4]) was 11%, the GI50 (A549) was 1.43 µM and the GI50 (NCI/ADR-RES) was 1.5 µM. The GI50 (HCT-15) was 0.937 µM, the GI50 (ACHN) was 1.53 µM and the GI50 (K562) was 1.1 µM. For the same molecule, the GI50 (HCT-116 [5]) was 0.868 µM, the LC50 (HCT-116 [5]) was 4.1 µM and the TGI (HCT-116 [5]) was 1.89 µM. The GI50 (RPMI-8226) was 1.65 µM, the LC50 (concentration killing 50% of cells) (RPMI-8226) was over 50 µM and the TGI (RPMI-8226) was 6.44 µM. For the same molecule, the Activity (HCT-116 [6]) was 14.3%, the pIC50 [7] was 4.47 and the pIC50 [8] was 5.84. For the same molecule, the GI50 (OVCAR-4) was 1.43 µM, the Activity (HCT-116 [9]) was 4.2% and the GI50 (Malme-3M) was 0.816 µM. It also gave an LC50 (concentration killing 50% of cells) (Malme-3M) of 3.2 µM, a TGI (Malme-3M) of 1.62 µM and a GI50 (SF-268) of 1.5 µM. The Activity (HCT-116 [10]) was 4.7%, the GI50 (MDA-MB-435) was 0.878 µM and the viability at 1.25 µM (HCT-116 [11]) was 81.7%. For the same molecule, the viability at 5 µM (HCT-116 [12]) was 85.1%, the GI50 (IGROV-1) was 1.25 µM and the LC50 (IGROV-1) was 25.6 µM. For the same molecule, the TGI (IGROV-1) was 4.24 µM, the Activity (HCT-116 [13]) was 5.4% and the GI50 (CCRF-CEM) was 1.4 µM. For the same molecule, the LC50 (CCRF-CEM) was over 50 µM, the TGI (CCRF-CEM) was over 50 µM and the GI50 (NCI-H322M) was 1.65 µM. For the same molecule, the GI50 (DU-145) was 1.81 µM, the GI50 (NCI-H226) was 2.26 µM and the GI50 (MCF7) was 0.851 µM. The LC50 (MCF7) was 4.25 µM, the TGI (MCF7) was 1.9 µM and the pIC50 [14] was 6.43. It also gave a GI50 (PC-3) of 1.26 µM, a viability at 48 h, 3 µM [15] of 88.6% and a GI50 (OVCAR-8) of 1.69 µM. The Activity (HCT-116 [16]) was 4.1%.
